Data published in article PMC12593965, “Determination of Retention Behavior and pK a Values of Some Phenothiazines with Green Chemistry Approach” (ACS Omega, 2025).
Read-outs that look alike come from different tables or passages of the source.

What was measured:
[1] = RPLC determination of sspKa in ACN-water binary mixtures (conventional RPLC); assay type: physicochemical; conditions: standard deviation in parentheses
Method: (§1) The analysis of the compounds on the HPLC column was determined in binary mixtures of ACN–water and EtOH–water containing 50, 55, and 60% (v/v) organic solvents at varying pH values (5.5–11.5). Buffer compounds containing 30 mM o-H3PO4 and NH4Cl at the same concentration were used in the mobile phases according to the pH values at which the buffers were effective.
(§2) The pH value of the mobile phase was adjusted by adding a 1 M NaOH solution to the mobile phase containing o-H3PO4 and by adding concentrated NH3 solution to the mobile phase containing ammonium chloride. The pH values of the binary mixtures in this mobile phase were evaluated according to the International Union of Pure and Applied Chemistry (IUPAC) guideline, taking into account the reference pH values obtained from the National Institute of Standards and Technology (NIST). − KHP (0.05 mol/kg) was used as a reference standard for electrode calibration in hydroorganic mixtures. The pH value (pHx) of this hydroorganic mixture can be determined by eq . pHx=pHs+Es−Ex/(ln10)RT/F 1
(§3) Solutions of the investigated compounds in binary mixtures were prepared daily. Standard solutions at 100 μg/mL concentrations were prepared in the studied mobile phase. Fresh solutions were prepared daily and stored at +4 °C in the dark until analysis. For testing, a 20 μL sample was injected three times into the HPLC instrument. The average t R was calculated from these replicates, showing precision with a relative standard deviation (%RSD) of approximately 0.01.
(§4) This liquid chromatographic study was performed at 25 and 37 °C. Chromatographic determination of the compounds was performed on a Kinetex EVO C18 (Phenomenex, 150 × 4.6 mm ID, 5 μm) core–shell column at a constant flow rate of 1 mL/min. There are no data in the literature regarding the determination of the retention behavior of compounds by analysis with HPLC columns produced with the core–shell technique. Additionally, the theoretical plate number of the column being 2000 and above and the tailing factor being below 2 indicate optimum column performance and satisfactory peak symmetry.
(§5) The t R values of promethazine, promazine, and trimeprazine for the study on the HPLC column were determined by using the RPLC method at different pH values in binary mixtures. The s ^spK a values of the ionizable and molecular forms (BH^+, B) were calculated using the nonlinear regression program (NLREG).
(§6) The intrinsic t R (t RBH^+ , t RB) and s ^spK a values of the studied compounds were calculated in the NLREG program using the average t R values determined depending on the changing EtOH and ACN concentrations and pH values in the mobile phase. It is seen that the standard deviation values of the sigmoidal fitting parameters (t RBH^+ , t RB, and s ^spK a) given in Table are very small. Since good results were obtained by using the t R value directly, the k value was not used. Although the changes in s ^spK a values according to the solvent composition in the mobile phase used were different for each compound, the same type of sigmoidal behavior was obtained as in Figure . The s ^spK a of basic compounds decreases mainly due to electrostatic interactions that contribute to the pK a value. Since ACN (0.46) and EtOH (0.65) have lower relative polarity compared to water (1.00), the solute–solvent polar interaction decreases as the amount of organic solvent in the mobile phase increases. Therefore, the t R value increases as the pH value of the mobile phase increases, while the t R value decreases as the amount of organic solvents in the mobile phase increases. In the mobile phase rich in ACN (0.25 ≤ X ACN ≤ 0.33) and EtOH (0.26 ≤ X EtOH ≤ 0.35), preferential solvation with water exists, and this can explain the decrease in the s ^spK a values of the studied compounds when the amount of organic solvent in the mobile phase increases. ,

[2] = RPLC determination of sspKa in EtOH-water binary mixtures (green RPLC); assay type: physicochemical; conditions: standard deviation in parentheses
Method: as §1, §2, §3, §4, §5, §6

[3] = Aqueous pKa (wwpKa) calculated from sspKa via X solvent - sspKa and 1/ε - sspKa linear relationships; assay type: physicochemical; conditions: for wwpKa, 1/εACN - sspKa approach / wwpKa, X ACN - sspKa approach: from ACN-water data; for wwpKa, 1/εEtOH - sspKa approach / wwpKa, X EtOH - sspKa approach: from EtOH-water data
Method: The w ^wpK a values of promethazine, promazine, and trimeprazine in a water medium were determined by evaluating the obtained s ^spK a values of the compounds with the X solvent – s ^spK a , and the reciprocal of the solvent’s dielectric constant (1/ε) – s ^spK a relationships.
In this study, the w ^wpK a values of the examined compounds were determined based on the mole fraction of solvent-s ^spK a (X solvent – s ^spK a) and 1/εsolvent – s ^spK a approaches. In the calculation using the solvent mole fraction, the intercept values of the equation obtained from the linear relationship between the organic solvent X solvent and s ^spK a give the w ^wpK a values of the compounds examined.
To confirm the computed w ^wpK a values, an alternative approach was employed. Within the scope of the study, the correlation between the inverse of the dielectric constant value of the organic solvent (1/ε) and the s ^spK a values of the compounds was utilized. Since the ε values depend on the temperature, these values were taken from Gagliardi et al. and Navarkhele and Navarkhele for the two temperatures under study. , In the obtained linear equations, ε values in the water environment were used for increasing temperatures, and w ^wpK a values for the compounds could be determined. There was a decrease in the dielectric constant with the decrease in solvent polarity.
Figure illustrates the linear relationship between the solvent’s macroscopic constant X solvent and s ^spK a values.

[4] = Percent ionization of the basic functional group by Henderson-Hasselbach equation; assay type: physicochemical; conditions: from wwpKa at 37 °C (EtOH-water)
Source text: Drug molecules can ionize at different pH ranges, and the pK a value serves as a universal measure of ionization. […] Changing the ionic form of a drug can affect its action, absorption, and therapeutic efficacy depending on the pH of the medium. Therefore, evaluating the degree of ionization of the compounds selected in this study is crucial. Using the Henderson–Hasselbach equation, the percent ionization and pK a (at 50% ionization) of the basic functional group of each compound at different pH values were calculated (Figure S4). Since a green chemistry approach was preferred in this study, the w ^wpK a values at 37 °C, determined from data obtained from an EtOH-water binary mixture, were used in the calculation of the percentage ionization. […] At a pH value 2 pH units above the pK a, the basic compound is in its un-ionized form. It is known that the hydrophilic properties of compounds decrease as the alkyl chain length increases. According to the data in Table S2, the percentage ionization values increase as the alkyl chain length increases.

[5] = cited from earlier work
[6] = source not stated; cited from earlier work

Row | Structure (SMILES) | sspKa ([1]; 50% (v/v) ACN-water, 25 °C) | sspKa ([1]; 50% (v/v) ACN-water, 37 °C) | sspKa ([1]; 55% (v/v) ACN-water, 25 °C) | sspKa ([1]; 55% (v/v) ACN-water, 37 °C) | sspKa ([1]; 60% (v/v) ACN-water, 25 °C) | sspKa ([1]; 60% (v/v) ACN-water, 37 °C) | sspKa ([2]; 50% (v/v) EtOH-water, 25 °C) | sspKa ([2]; 50% (v/v) EtOH-water, 37 °C) | sspKa ([2]; 55% (v/v) EtOH-water, 25 °C) | sspKa ([2]; 55% (v/v) EtOH-water, 37 °C) | sspKa ([2]; 60% (v/v) EtOH-water, 25 °C) | sspKa ([2]; 60% (v/v) EtOH-water, 37 °C) | wwpKa, 1/εACN - sspKa approach ([3]; 25 °C) | wwpKa, X ACN - sspKa approach ([3]; 25 °C) | wwpKa, 1/εACN - sspKa approach ([3]; 37 °C) | wwpKa, 1/εEtOH - sspKa approach ([3]; 25 °C) | wwpKa, X EtOH - sspKa approach ([3]; 25 °C) | wwpKa, 1/εEtOH - sspKa approach ([3]; 37 °C) | wwpKa, X EtOH - sspKa approach ([3]; 37 °C) | % Ionization value ([4]; pH 2.0) [%] | further results
1 | CN(C)CCCN1c2ccccc2Sc2ccccc21 [promazine] | 9.265 (0.088) | 9.195 (0.036) | 9.096 (0.012) | 9.042 (0.082) | 8.867 (0.009) | 8.857 (0.082) | 9.185 (0.042) | 9.048 (0.024) | 8.978 (0.008) | 8.914 (0.053) | 8.808 (0.042) | 8.805 (0.066) | 10.361 | 10.468 | 10.120 | 10.302 | 10.407 | 9.766 | 9.836 | 100 | wwpKa, X ACN - sspKa approach ([3]; 37 °C): 10.213; % Ionization value ([4]; pH 7.4): 99.635%; % Ionization value ([4]; pH 9.0): 87.269%; % Ionization value ([4]; pH 10.0): 40.670%; % Ionization value ([4]; pH 12.0): 0.681%; pKa, literature values ([5]; 37 °C): 9.11 ± 0.03; logP [6]: 3.75
2 | CC(CN1c2ccccc2Sc2ccccc21)N(C)C (stereo not shown) [promethazine] | 9.167 (0.064) ^a | 9.108 (0.045) | 9.007 (0.064) | 8.947 (0.097) | 8.868 (0.075) | 8.806 (0.053) | 9.117 (0.011) ^a | 8.926 (0.082) | 8.999 (0.008) | 8.824 (0.009) | 8.900 (0.071) | 8.666 (0.031) | 9.980 | 10.056 | 9.924 | 9.761 | 9.821 | 9.716 | 9.787 | 100 | wwpKa, X ACN - sspKa approach ([3]; 37 °C): 10.006; % Ionization value ([4]; pH 7.4): 99.591%; % Ionization value ([4]; pH 9.0): 85.962%; % Ionization value ([4]; pH 10.0): 37.979%; % Ionization value ([4]; pH 12.0): 0.609%; logP [6]: 3.14
3 | CC(CN(C)C)CN1c2ccccc2Sc2ccccc21 (stereo not shown) [trimeprazine] | 9.643 (0.078) | 9.470 (0.073) | 9.527 (0.038) | 9.329 (0.050) | 9.425 (0.062) | 9.202 (0.047) | 9.388 (0.012) | 9.329 (0.034) | 9.278 (0.016) | 9.243 (0.091) | 9.167 (0.034) | 9.118 (0.045) | 10.134 | 10.268 | 10.112 | 10.049 | 10.110 | 9.968 | 10.027 | 100 | % Ionization value ([4]; pH 7.4): 99.765%; % Ionization value ([4]; pH 9.0): 91.410%; % Ionization value ([4]; pH 10.0): 51.554%; % Ionization value ([4]; pH 12.0): 1.053%; pKa, literature values ([5]; 25 °C, different methods (CE, potentiometry, UV-Vis)): 10.12; logP [6]: 4.11
